Test system: GST27
Test: GST27 induction, metcamifen pre-treatment of isolated embryos
Type: cell-based, maize
Settings: for GST27 before doubling, Mean: embryo pre-treatment 10 mg/L in MS media; for GST27 Mean: embryo pre-treatment in MS media
Protocol: For the examples below, GST27 was used as a quick indicator for treatment effectiveness.
Embryos from maize ears were isolated and treated with metcamifen prior to a colchicine doubling treatment. Isolated embryos plated on filter paper were pre-treated with a formulation of metcamifen at concentrations of 0, 10, 100, and 1000 mg/L in Murashige and Skoog Medium (MS media) for a duration of 1, 3, 5, or 7 days at 6° C. with 150 PAR light. GST27 induction was measured after pre-treatment at each time point and again at the end of the colchicine treatment. Resulting embryos were germinated, and the percentage of embryos successfully transferred to soil (percent potted rate) was measured as an indicator of plant health and pre-treatment effectiveness. GST27 was induced by metcamifen at a medium level ([…] of TSP), but higher than ear pre-treatment that was less than 10 ng/ml of TSP.
The addition of 10% DMSO in the metcamifen formulation at 10, 100, and 1000 mg/L in the MS media was tested to potentially increase the uptake of metcamifen. This test was done at temperatures of both 6° C. and 20° C. over a course of 0 to 4 days. There was no increase in GST27 expression with the 10% DMSO addition at either temperature.
Embryo pre-treatment with metcamifen at 10 mg/L was tested at temperatures of 6° C. and 20° C. for 1 day to measure the impact of temperature on embryo health.

`CNC(=O)Nc1ccc(S(=O)(=O)NC(=O)c2ccccc2OC)cc1` [Metcamifen, metcamifen] was tested, and the “GST27 induction in comparison to the control and other doses” value (10 mg/L, all time points, 6° C. and 20° C., DMSO test) was “best GST27 induction”, the “GST27 expression with 10% DMSO addition” value (10, 100, 1000 mg/L in MS media, 6° C. and 20° C., 0 to 4 days) was “no increase” and the “GST27 before doubling, Mean” value (1 day, 6° C.) was 8.83 ng/mg TSP. The “GST27 before doubling, Mean” value (1 day, 20° C.) was 140 ng/mg TSP, the “GST27 Mean” value (10 mg/L, 1 day, 6° C.) was 9 ng/mg TSP and the “GST27 Mean” value (10 mg/L, 3 days, 6° C.) was 14 ng/mg TSP. The “GST27 Mean” value (10 mg/L, 5 days, 6° C.) was 37 ng/mg TSP, the “GST27 Mean” value (10 mg/L, 7 days, 6° C.) was 75 ng/mg TSP and the “GST27 Mean” value (100 mg/L, 1 day, 6° C.) was 21 ng/mg TSP. The “GST27 Mean” value (100 mg/L, 3 days, 6° C.) was 30 ng/mg TSP, the “GST27 Mean” value (100 mg/L, 5 days, 6° C.) was 61 ng/mg TSP and the “GST27 Mean” value (100 mg/L, 7 days, 6° C.) was 92 ng/mg TSP. For the same compound, the “GST27 Mean” value (1000 mg/L, 1 day, 6° C.) was 11 ng/mg TSP, the “GST27 Mean” value (1000 mg/L, 3 days, 6° C.) was 71 ng/mg TSP and the “GST27 Mean” value (1000 mg/L, 5 days, 6° C.) was 60 ng/mg TSP. For the same compound, the “GST27 Mean” value (1000 mg/L, 7 days, 6° C.) was 108 ng/mg TSP and the “GST27 induced by metcamifen (medium level)” value (embryo pre-treatment, 10-1000 mg/L, 1-7 days, 6° C.) was < 100 ng/ml of TSP.
